Measurements as given in patent US10316025B2, “Substituted piperazine compounds and methods of use and use thereof” (SUNSHINE LAKE PHARMA CO., LTD., priority 2015, dated 2019).

Tests used:
[1] = target: T1, 5-HT1A receptors (Homo sapiens, UniProt P08908); assay: h5-HT1A binding affinity test ([3H]8-OH-DPAT, HEK-293 cell homogenates); conditions: 0.3 nM [3H]8-OH-DPAT, 22°C, 60 min, Ki from IC50 by ChengPrusoff equation
T1 construct: host or cells: human HEK-293 cell homogenates
T1 sequence (P08908 1-422): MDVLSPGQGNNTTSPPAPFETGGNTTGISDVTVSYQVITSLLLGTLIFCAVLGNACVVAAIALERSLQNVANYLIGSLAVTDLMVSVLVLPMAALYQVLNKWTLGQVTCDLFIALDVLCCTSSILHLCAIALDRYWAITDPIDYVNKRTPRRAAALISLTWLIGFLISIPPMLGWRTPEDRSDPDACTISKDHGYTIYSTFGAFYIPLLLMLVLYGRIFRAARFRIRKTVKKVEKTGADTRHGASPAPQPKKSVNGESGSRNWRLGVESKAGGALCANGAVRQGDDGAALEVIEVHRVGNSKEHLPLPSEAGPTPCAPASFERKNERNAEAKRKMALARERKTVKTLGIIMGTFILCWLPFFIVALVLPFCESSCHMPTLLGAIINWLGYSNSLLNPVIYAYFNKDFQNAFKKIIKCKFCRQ
Description: Human HEK-293 cell homogenates (36 μg of protein) were incubated at 22° C. for 60 minutes with 0.3 nM of [^3H]8-OH-DPAT (Perkin-Elmer) in the absence or presence of the test compound in a buffer solution containing 50 mM of Tris-HCl (pH 7.4), 10 mM of MgSO4, 0.5 mM of EDTA and 2 μg/mL aprotinine.
The non-specific binding value was determined by incubating the same mixture in the presence of 10 μM of 8-OH-DPAT, which was used as the standard reference compound. Competitive curve was obtained by testing data of 8-OH-DPAT in each experiment at several concentrations.
The incubated samples were filtered fastly using a 96-sample cell harvester (Unifilter, Packard) through fiberglass filter membranes (GF/B, Packard) pre-soaked with 0.3% PEI in vacuo, and washed several times with an ice cold 50 mM of Tris-HCl. The filter membranes were dried and the retained radioactivity was measured in a scintillation counter (Topcount, Packard) using a scintillation cocktail (Microscint 0, Packard). The experimental results were expressed as inhibition percentage of radioactive ligand specific binding relative to control groups.
The experiments of combining [^3H]8-OH-DPAT (0.3 nM) with 5-HT1A receptors of human HEK-293 cells were accomplished by using Scintillation Proximity Assay on membrane. The test compounds were required to be tested at least three times in the case of a concentration of more than 6 log, and the data were analyzed by the method of nonlinear regression using Hill equation curve to obtain an IC50 value, and then the IC50 value was calculated by ChengPrusoff equation to obtain a Ki value.

[2] = target: T2, human 5-HT transporters (SERT) (Homo sapiens, UniProt P31645); assay: Affinity to CHO cells-transfected human-derived 5-HT transporter ([3H]imipramine binding); conditions: 2 nM [3H]imipramine, CHO cell membrane homogenate, 22°C, 60 min
T2 construct: expressed in transfected cells; host or cells: CHO cells (membrane homogenate)
Description: To a mixed system of cell membrane homogenate protein (12 μg), 2 nM of [^3H] imipramine and buffer solution (50 mM of Tris-HCl (pH 7.4), 120 mM of NaCl, 0.5 mM of KCl and 0.1% BSA) was added or not added the test compound at 22° C., and then the resulting mixture was incubated for 60 minutes.
To the mixed system mentioned above was added 10 μM of imipramine for measuring nonspecific binding values.
After incubation, the samples were filtered rapidly in vacuo with a 96-sample cell harvester (Unifilter, Packard) through glass-fiber filters (GF/B, Packard) pre-soaked with 0.3% PEI and rinsed several times with an ice-cold 50 mM of Tris-HCl and 150 mM of NaCl. The filters were dried and the retained radioactivity was measured by means of a scintillation counter (Topcount, Packard) using a scintillation cocktail (Microscint O, Packard). Each experimental result was expressed as a percentage inhibition of radioactive ligand specific binding relative to control groups.
The standard reference compound was imipramine, and ICso values were calculated by the competitive curve obtained from a series of concentrations of the experimental test. The experimental results of the affinity of the compounds disclosed herein to human 5-HT transporters (SERT) were listed in Table A.

[3] = Pharmacokinetic evaluation in rats after intravenous or gavage administration; format: in vivo, SD rats; conditions: for AUC(0-inf) / AUC(0-t) / Cmax / Tmax / clearance / half-life / Vd: SD, rat, plasma; for Vd: read-out: Vss
Description: The pharmacokinetic evaluation of the compound disclosed herein in rats, dogs and monkeys was carried out in this invention, and animal information as described in Table 1.
The compounds disclosed herein were administered in form of a saline solution containing 5% DMSO, 5% Kolliphor HS 15, 2% (2% HCl) and 88% Saline, or a physiological saline solution containing 10% DMSO, 10% Kolliphor HS 15 and 80% physiological saline to an animal subject. The animals of the intravenous administration group were administered at a dose of 1 mg/kg, and 0.3 mL of vein blood samples were collected at the time points of 0, 0.083, 0.25, 0.5, 1.0, 2.0, 5.0, 7.0 and 24 h after drug administration, then each blood sample was processed to separate plasma by centrifugation at 3000 rpm or 4000 rpm for 10 minutes, and the plasma samples were collected and stored at −20° C. or −70° C. The animals of the gavage administration group were administered at a dose of 2.5 mg/kg, and 0.3 mL of vein blood samples were collected at the time points of 0, 0.083, 0.25, 0.5, 1.0, 2.0, 5.0, 7.0 and 24 h after drug administration, then each blood sample was processed to separate plasma by centrifugation at 3000 rpm or 4000 rpm for 10 minutes, and the plasma samples were collected and stored at −20° C. or −70° C.
The above plasma was analyzed by the LC/MS/MS system.
The LC/MS/MS system for the analysis comprises an Agilent 1200 Series Vacuum Degasser, binary syringe pumps, a well-plate autosampler, a column oven and an Agilent G6430A Triple Quadrupole Mass Spectrometer equiped with an electrospray ionization (ESI) source.
Analysis was performed on waters XBridge C18 (2.1×50 mm, […] column, and 5 μL of sample was injected). Conditions of the analysis comprise: a mobile phase consisting of mobile phase A (water, 2 mM ammonium formate and 0.1% formic acid) and mobile phase B (methanol, 2 mM ammonium formate and 0.1% formic acid). A flow rate of 0.4 mL/min.

T2 sequence (P31645 whole entry): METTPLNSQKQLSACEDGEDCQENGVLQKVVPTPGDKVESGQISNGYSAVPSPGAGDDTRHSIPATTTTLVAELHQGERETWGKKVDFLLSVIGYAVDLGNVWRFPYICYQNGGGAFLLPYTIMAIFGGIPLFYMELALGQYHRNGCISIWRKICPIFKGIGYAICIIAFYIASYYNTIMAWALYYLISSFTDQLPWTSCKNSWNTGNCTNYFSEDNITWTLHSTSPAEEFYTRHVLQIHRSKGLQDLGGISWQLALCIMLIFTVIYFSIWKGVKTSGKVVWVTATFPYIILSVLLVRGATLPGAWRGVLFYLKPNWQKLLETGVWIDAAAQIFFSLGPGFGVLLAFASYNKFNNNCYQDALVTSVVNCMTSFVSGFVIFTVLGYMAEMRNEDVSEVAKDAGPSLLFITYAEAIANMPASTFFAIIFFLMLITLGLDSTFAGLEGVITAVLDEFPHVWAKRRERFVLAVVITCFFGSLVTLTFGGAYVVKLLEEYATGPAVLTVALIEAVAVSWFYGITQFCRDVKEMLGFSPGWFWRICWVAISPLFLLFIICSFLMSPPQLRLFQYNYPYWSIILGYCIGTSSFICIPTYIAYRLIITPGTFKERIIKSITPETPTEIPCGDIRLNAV

| Structure (SMILES) | AUC(0-inf) ([3]; iv, 1 mg/kg) [ng·h/mL] | AUC(0-t) ([3]; iv, 1 mg/kg) [ng·h/mL] | Cmax ([3]; iv, 1 mg/kg) [ng/mL] | Tmax ([3]; iv, 1 mg/kg) [h] | clearance ([3]; iv, 1 mg/kg) [mL/min/kg] | half-life ([3]; iv, 1 mg/kg) [h] | Vd ([3]; iv, 1 mg/kg) [L/kg] | AUC(0-inf) ([3]; po, 2.5 mg/kg) [ng·h/mL] | AUC(0-t) ([3]; po, 2.5 mg/kg) [ng·h/mL] | Cmax ([3]; po, 2.5 mg/kg) [ng/mL] | Tmax ([3]; po, 2.5 mg/kg) [h] | half-life ([3]; po, 2.5 mg/kg) [h] | F ([3]; po, 2.5 mg/kg) [%] | Ki [1] [nM] | IC50 [2] [nM] |
| --- | --- | --- | --- | --- | --- | --- | --- | --- | --- | --- | --- | --- | --- | --- | --- |
| N#Cc1ccc2[nH]cc(CCCN3CCN(c4ncc(-c5cccc(C(N)=O)c5)cn4)CC3)c2c1 [Example 2, 3-(2-(4-(3-(5-cyano-1H-indol-3-yl)propyl)piperazin-1-yl)pyrimidin-5-yl) benzamide] | 753 | 722 | 409 | 0.083 | 22.9 | 1.59 | 2.33 | 767 | 706 | 241 | 0.833 | 1.95 | 39.2 | 1.21 | 0.35 |
| COc1ccccc1-c1cnc(N2CCN(CCCCc3c[nH]c4ccc(C#N)cc34)CC2)nc1 [Example 9, 3-(4-(4-(5-(2-methoxyphenyl)pyrimidin-2-yl)piperazin-1-yl)butyl)-1H-indole-5-carbonitrile] | – | – | – | – | – | – | – | – | – | – | – | – | – | 2.7 | 1 |
| N#Cc1ccc2[nH]cc(CCCCN3CCN(c4ncc(-c5cccc(C(N)=O)c5)cn4)CC3)c2c1 [Example 1, 3-(2-(4-(4-(5-cyano-1H-indol-3-yl)butyl)piperazin-1-yl)pyrimidin-5-yl)benzamide] | – | – | – | – | – | – | – | – | – | – | – | – | – | 2.87 | 0.86 |
| COc1cc(F)ccc1-c1cnc(N2CCN(CCCCc3c[nH]c4ccc(C#N)cc34)CC2)nc1 [Example 15, 3-(4-(4-(5-(4-fluoro-2-methoxyphenyl)pyrimidin-2-yl)piperazin-1-yl)butyl)-1H-indole-5-carbonitrile] | – | – | – | – | – | – | – | – | – | – | – | – | – | 11 | 0.96 |
| N#Cc1ccc2[nH]cc(CCCN3CCN(c4ncc(-c5ccc(C(N)=O)cc5)cn4)CC3)c2c1 [Example 6, 4-(2-(4-(3-(5-cyano-1H-indol-3-yl)propyl)piperazin-1-yl)pyrimidin-5-yl) benzamide] | – | – | – | – | – | – | – | – | – | – | – | – | – | 4.13 | 0.93 |
| COc1cc(F)ccc1-c1cnc(N2CCN(CCCc3c[nH]c4ccc(C#N)cc34)CC2)nc1 [Example 16, 3-(3-(4-(5-(4-fluoro-2-methoxyphenyl)pyrimidin-2-yl)piperazin-1-yl)propyl)-1H-indole-5-carbonitrile] | – | – | – | – | – | – | – | – | – | – | – | – | – | 7.1 | 0.87 |
| N#Cc1ccc2[nH]cc(CCCCN3CCN(c4ncc(-c5ccc(C(N)=O)cc5)cn4)CC3)c2c1 [Example 5, 4-(2-(4-(4-(5-cyano-1H-indol-3-yl)butyl)piperazin-1-yl)pyrimidin-5-yl)benzamide] | – | – | – | – | – | – | – | – | – | – | – | – | – | 8.42 | 0.79 |
| N#Cc1ccc2[nH]cc(CCCCN3CCN(c4ncc(-c5ccc(Cl)cc5)cn4)CC3)c2c1 [Example 11, 3-(4-(4-(5-(4-chlorophenyl)pyrimidin-2-yl)piperazin-1-yl)butyl)-1H-indole-5-carbonitrile] | – | – | – | – | – | – | – | – | – | – | – | – | – | 13 | 1.6 |
| COc1ccccc1-c1cnc(N2CCN(CCCc3c[nH]c4ccc(C#N)cc34)CC2)nc1 [Example 10] | – | – | – | – | – | – | – | – | – | – | – | – | – | 3.4 | 0.84 |
| N#Cc1ccc2[nH]cc(CCCCN3CCN(c4ncc(-c5ccc(F)cc5)cn4)CC3)c2c1 [Example 7, 3-(4-(4-(5-(4-fluorophenyl)pyrimidin-2-yl)piperazin-1-yl)butyl)-1H-indole-5-carbonitrile] | 1030 | 1010 | 299 | 0.139 | 16.7 | 4.64 | 5.03 | 2010 | 1960 | 194 | 2.67 | 4.37 | 78.1 | 3.7 | 0.88 |
| N#Cc1ccc2[nH]cc(CCCCN3CCN(c4ncc(-c5ccc(F)cc5F)cn4)CC3)c2c1 [Example 13, 3-(4-(4-(5-(2,4-difluorophenyl)pyrimidin-2-yl)piperazin-1-yl)butyl)-1H-indole-5-carbonitrile] | 724 | 643 | 330 | 0.083 | 23.8 | 3.9 | 6 | 1160 | 1070 | 152 | 1 | 4.14 | 66.4 | 1.3 | 1.2 |

Further lines, with some results ahead:

| AUC(0-inf) ([3]; iv, 1 mg/kg) [ng·h/mL] | AUC(0-t) ([3]; iv, 1 mg/kg) [ng·h/mL] | Cmax ([3]; iv, 1 mg/kg) [ng/mL] | Tmax ([3]; iv, 1 mg/kg) [h] | clearance ([3]; iv, 1 mg/kg) [mL/min/kg] | half-life ([3]; iv, 1 mg/kg) [h] | Vd ([3]; iv, 1 mg/kg) [L/kg] | AUC(0-inf) ([3]; po, 2.5 mg/kg) [ng·h/mL] | AUC(0-t) ([3]; po, 2.5 mg/kg) [ng·h/mL] | Cmax ([3]; po, 2.5 mg/kg) [ng/mL] | Tmax ([3]; po, 2.5 mg/kg) [h] | half-life ([3]; po, 2.5 mg/kg) [h] | F ([3]; po, 2.5 mg/kg) [%] | Structure (SMILES) | Ki [1] [nM] | IC50 [2] [nM] |
| --- | --- | --- | --- | --- | --- | --- | --- | --- | --- | --- | --- | --- | --- | --- | --- |
| 2240 | 1870 | 444 | 0.083 | 7.5 | 9.52 | 5.46 | – | 2950 | 207 | 5.67 | – | 52.62 | N#Cc1ccc2[nH]cc(CCCN3CCN(c4ncc(-c5ccc(Cl)cc5)cn4)CC3)c2c1 [Example 12, 3-(3-(4-(5-(4-chlorophenyl)pyrimidin-2-yl)piperazin-1-yl)propyl)-1H-indole-5-carbonitrile] | 5.5 | 0.32 |
| 1500 | 1340 | 193 | 0.25 | 11.6 | 7.53 | 6.41 | 3130 | 2790 | 180 | 5 | 7.28 | 83.28 | N#Cc1ccc2[nH]cc(CCCN3CCN(c4ncc(-c5ccc(F)cc5F)cn4)CC3)c2c1 [Example 14, 3-(3-(4-(5-(2,4-difluorophenyl)pyrimidin-2-yl)piperazin-1-yl)propyl)-1H-indole-5-carbonitrile] | 0.92 | 0.58 |
| 1250 | 1180 | 195 | 0.139 | 13.4 | 5.85 | 6.01 | 2070 | 2140 | 180 | 4 | 4.85 | 68.48 | N#Cc1ccc2[nH]cc(CCCN3CCN(c4ncc(-c5ccc(F)cc5)cn4)CC3)c2c1 [Example 8, 3-(3-(4-(5-(4-fluorophenyl)pyrimidin-2-yl)piperazin-1-yl)propyl)-1H-indole-5-carbonitrile] | 1.9 | 1.3 |
